The values below come from US9034886B2, “4-aminoquinazoline derivatives and uses thereof” (Shanghai Institute of Pharmaceutical Industry, priority 2011, dated 2015).

For series [1], the system named is Colo320 human colorectal cancer cell lines. Description: In vitro anti-proliferative effect, CCK-8 method, Colo320. Type of series: cell-based. The note with it: Homo sapiens, COLO 320, Colo320 cell strain, CCK-8 method; for inhibition at 10 µM: compound at 10 μM; for inhibition at 100 µM: compound at 100 μM. An outline of the steps:
(§1)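 Percent growth inhibition was read by CCK-8 assay after exposure to two concentrations, 100 μM and 10 μM.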

Series [2] relates to A549 human lung cancer cells. As to the kind of experiment: In vitro anti-proliferative effect, CCK-8 method, A549. Type of series: cell-based. The note with it: Homo sapiens, A549. The essentials:
as §1
A general note: Tetrazolium assays rely on reduction of a dye to a coloured formazan, in cell work by metabolically active cells.

In series [3] the test system is Jurkat E6-1 human T-cell lymphoma. As to the kind of experiment: In vitro anti-proliferative effect, CCK-8 method, Jurkat E6-1. It counts as cell-based. The note with it: Homo sapiens, Jurkat E6.1. The essentials:
as §1

Series [4] concerns MDA-MB-435s human breast cancer cells. As to the kind of experiment: In vitro anti-proliferative effect, CCK-8 method, MDA-MB-435s. Type of series: cell-based. The note with it: Homo sapiens, MDA-MB-435S. An outline of the steps:
as §1

Series [5] has as its system K562 human chronic myelogenous leukemia cells. Description: In vitro anti-proliferative effect, CCK-8 method, K562. Type of series: cell-based. The note with it: Homo sapiens, K562. An outline of the steps:
(§2)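 Percent growth inhibition, measured with CCK-8, in Hut78 and K562 leukemia cells at two compound concentrations, 10 μM and 100 μM.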

The test system of series [6] is PC-3 human prostate cancer. Description: In vitro anti-proliferative effect, CCK-8 method, PC-3. It counts as cell-based. As to conditions: Homo sapiens, PC-3 cell strain, CCK-8 method; for inhibition at 10 µM: compound at 10 μM; for inhibition at 100 µM: compound at 100 μM. The essentials: as §1
Series [7] can be described thus: Maximum tolerance dose through intragastrical administration. Type of series: in vivo. As to conditions: mice, administrated intragastrically. How it is done: Forty ICR mice, half female and half male, weighing […] were divided into four groups, 10 mice in each group. After the mice were fasted for 6 h, the compound to be tested was administrated intragastrically to each group at a volume of 0.3 ml/10 g by using a sterile plastic syringe. General physical signs and the deaths of the animals were record at 1, 2 and 4 h after the administration. The animals were then observed continuously for 14 days and their weights, physical signs and deaths were observed and recorded every day. Dead animals were dissected to see if there was any visible pathological change in the animal's viscera and pathological examination was performed on suspicious tissues and organs. A part of the experimental results is as follows.

Series [8] concerns Hut78 T lymphocytic leukemia cells. As to the kind of experiment: In vitro anti-proliferative effect, CCK-8 method, Hut78. Type of series: cell-based. As to conditions: Homo sapiens, HuT78, read-out: Hut-78 (inhibition %). An outline of the steps:
as §2

The subject of series [9] is Hep3B2.1-7 human liver cancer cells. Description: In vitro anti-proliferative effect, CCK-8 method, Hep3B. It counts as cell-based. The note with it: Homo sapiens, Hep3B cell strain, CCK-8 method; for inhibition at 10 µM: compound at 10 μM; for inhibition at 100 µM: compound at 100 μM. An outline of the steps:
as §1

For series [10], the system named is PANC-1 human pancreatic cancer cells. As to the kind of experiment: In vitro anti-proliferative effect, CCK-8 method, PANC-1. Type of series: cell-based. The note with it: Homo sapiens, PANC-1. The essentials:
as §1

A further series relates to HDACs. As to the kind of experiment: In vitro inhibition of HDACs (HDAC Inhibitor Drug Screening Kit, Biovision K340-100). It counts as biochemical. How it is done:
The in vitro inhibitory activities of the compounds towards HDACs were tested according to the instructions in the HDAC Inhibitor Drug Screening Kit (Biovision/Catalog #K340-100).
(1) The compounds to be tested were each individually prepared as 2 mM, 200 μM and 40 μM solutions and their inhibitory activities at these concentrations were tested.

Consider `CC(=O)Nc1ccc2ncnc(NCc3ccc(C(=O)Nc4ccccc4N)cc3)c2c1` [Compound V-46, N-(2-aminophenyl)-4-[(6-acetamidoquinazoline-4-amino)methyl]benzamide], for which the inhibition at 10 µM in series [1] is 13.7%; in series [2], 7.7%; in series [3], 14.8%; in series [4], 16.4%; in series [5] it was 27.3%; in series [6] it was -1.7%. The results for the inhibition at 10 µM in series [8], in series [9] and in series [10] were 16.4%, 17.5% and 8.1%, respectively. Besides, the inhibition at 100 µM was -9% in series [1]; 4.1% in series [2]; 1.9% in series [3]; 4.1% in series [4]; 18.9% in series [5]; -2.4% in [6]. Besides, the inhibition at 100 µM was 93.4% in [8], -5% in [9] and 70.4% in series [10]. In addition, the maximum tolerance dose entry in series [7] is “over 2000 mg/kg”.

`Nc1ccccc1NC(=O)c1ccc(CNc2ncnc3c(F)cccc23)cc1` [Compound V-43, N-(2-aminophenyl)-4-[(8-fluoroquinazoline-4-amino)methyl]benzamide]: the inhibition at 10 µM in series [1] came out at 19.1%; in [2], 41.2%; in series [3] it was 69.1%; in [4], 18.8%; in series [5] it was 13.8%; in series [6] it was 81.4%. For the same molecule, the values for the inhibition at 10 µM in series [8], in [9] and in series [10] were 75.7%, 21.2% and 3.1%, respectively. For the same molecule, the inhibition at 100 µM in series [1] came out at 59.4%; in [2], 85.5%; in [3], 96.8%; in [4], 86.4%; in [5], 60.8%; in series [6], 89.4%. For the same molecule, the inhibition at 100 µM in [8] was found to be 89.6%; in [9], 58.8%; in series [10] it was 35.9%. In addition, the maximum tolerance dose result in series [7] is given as “over 5000 mg/kg”.

With `CC(=O)Nc1ccc2ncnc(NCc3ccc(C(=O)Nc4ccncc4N)cc3)c2c1` [Compound V-47], the inhibition at 10 µM in series [1] stood at 11%; in [2], 9.4%; in [3], 59.4%; in series [4], 21.8%; in series [5] it was 58%; in [6], 7.2%. Moreover, the inhibition at 10 µM came out at 9.9% in series [8], 11.2% in [9] and 2.8% in [10]. Further, the inhibition at 100 µM in series [1] came to 6%; in series [2], 8%; in [3] it was 76.6%; in [4] it was 29.2%; in [5], 62.1%; in series [6], 12.8%. Moreover, the inhibition at 100 µM in [8] stood at 88.3%; in series [9] it was 19.2%; in series [10], 43%. For the same molecule, the maximum tolerance dose entry in series [7] is on record as “over 5000 mg/kg”.

Consider `COc1cc2ncnc(Nc3ccc(C(=O)Nc4ccncc4N)cc3)c2cc1OC` [Compound V-4], for which the inhibition at 10 µM in [1] is 7.1%; in [2], -43.9%; in series [3], 5.4%; in [4], -20.7%; in [5] it was -1.3%; in series [6] it was 5.2%. Further, the inhibition at 10 µM in [8] is 66.4%; in series [9] it was -10.2%; in series [10] it was 14.4%. Also, the inhibition at 100 µM was 16.8% in [1]; -19.4% in [2]; 23.7% in series [3]; -10.4% in [4]; 38.1% in series [5]; 15.9% in series [6]. Moreover, the results for the inhibition at 100 µM in [8], in series [9] and in series [10] were 95.8%, -12.1% and 11.9%, respectively. In addition, in the series with HDACs, the 50% inhibitory concentration (IC50) worked out at 3.29 µM. The “inhibitory activity according to in vitro IC50 value against HDACs compared with MS-275” value with HDACs is on record as “better inhibitory activities than MS-275”. The “Inhibition percentage (%) towards HDACs” value is recorded as 36.3% in the series with HDACs (40 μM), 70.3% in the series with HDACs (200 μM) and 85.3% in the series on HDACs (2 mM). Also, in the series with HDACs (concentrations of 2 mM, 200 μM, and 40 μM), the “inhibitory activity on HDACs compared with MS-275” value is “significantly stronger inhibitory activities than MS-275”. The maximum tolerance dose entry in [7] is reported as “over 5000 mg/kg”.

On to `Nc1cnccc1NC(=O)c1ccc(Nc2ncnc3ccccc23)cc1` [Compound V-2], for which the inhibition at 10 µM is 39.6% in series [1]; 65.6% in series [2]; 58.5% in series [3]; 35.8% in series [4]; 21% in [5]; 90.3% in series [6]. Further, the inhibition at 10 µM is 63.4% in [8], 31.2% in series [9] and 20.7% in series [10]. Further, the inhibition at 100 µM was found to be 92.9% in [1]; 84.8% in series [2]; 85.9% in [3]; 86.9% in series [4]; 64.4% in series [5]; 92.4% in series [6]. Besides, the inhibition at 100 µM in [8] was found to be 82.8%; in series [9], 53.6%; in [10], 74.1%. Moreover, the “Inhibition percentage (%) towards HDACs” value worked out at 17.6% with HDACs (40 μM), 28.0% in the series on HDACs (200 μM) and 77.1% with HDACs (2 mM). The maximum tolerance dose result in series [7] is recorded as “over 2000 mg/kg”.

`COc1ccc2ncnc(Nc3ccc(C(=O)Nc4ccccc4N)cc3)c2c1` [Compound V-5, N-(2-aminophenyl)-4-(6-methoxyquinazoline-4-amino)benzamide]: the inhibition at 10 µM in series [1] was 13%; in [2] it was -44.3%; in series [3], 62.2%; in [4], -14.3%; in [5], 49.4%; in series [6], 0%. In addition, the inhibition at 10 µM in series [8] was found to be 15%; in series [9], 7.3%; in series [10] it was 10.5%. Moreover, the inhibition at 100 µM in [1] is 45.3%; in series [2] it was -13.1%; in series [3], 87.9%; in [4], 84.1%; in [5] it was 83.2%; in [6] it was 66.7%. Also, the inhibition at 100 µM in series [8] was found to be 43.9%; in series [9], 66.6%; in series [10] it was 45.9%. In addition, half-maximal inhibition with HDACs (IC50) required 7.79 µM. The “Inhibition percentage (%) towards HDACs” value with HDACs (40 μM) is 2.8%; in the series on HDACs (200 μM), 16.8%; with HDACs (2 mM), 36.7%. Besides, the maximum tolerance dose result in series [7] is listed as “over 2000 mg/kg”.

By inhibition is commonly meant the drop in the measured response relative to a control, in per cent. By IC50 is commonly meant the concentration that gives 50% inhibition.
